For series [1], the system named is Plasmodium falciparum. The series can be described thus: NOVARTIS: Inhibition of Plasmodium falciparum 3D7 (drug-susceptible) proliferation in erythrocyte-based infection assay. The series is classed as functional, organism-based. Particulars: Plasmodium falciparum, 3D7.
Series [2] deals with Plasmodium falciparum. Kind of series: NOVARTIS: Inhibition of Plasmodium falciparum W2 (drug-resistant) proliferation in erythrocyte-based infection assay. The class given is functional, organism-based. Particulars: Plasmodium falciparum, W2; read-out: EC50.
The nature of series [3]: NOVARTIS: Cytotoxicity against human hepatocellular carcinoma cell line (Huh7). The class given is toxicity, cell-based, Huh-7. Conditions: Huh7 cells (hepatocellular carcinoma cell line).

In general, EC50 refers to the concentration at which the effect is half-maximal. Usually CC50 stands for the concentration at which the toxic effect on the cells reaches its halfway point. A low value points to harm at low concentration.

Consider `c1ccc(CCNc2ncnc3c2[nH]c2ccccc23)cc1`, for which the EC50 in series [1] was 167 nM; in series [2], 136 nM. In series [3], this compound registered a CC50 of 15600 nM.

Turning to `CC(Cc1ccsc1)Nc1nc2nonc2nc1N(C)C` (centres undefined), the EC50 in series [1] turned out to be 810 nM; in series [2], 881 nM. Further, the CC50 in series [3] is > 100000 nM.

For the compound `Cc1ccc2[nH]c(C)c(Br)c(=O)c2c1`, the half-maximal effective concentration (EC50) turned out to be 1240 nM in series [1] and 884 nM in series [2]. Besides, the cytotoxic concentration (CC50) in series [3] is > 100000 nM.

Take `CN(C)CCCNc1ncnc2c1[nH]c1ccc(Br)cc12`: the EC50 worked out at 48.1 nM in series [1] and 231 nM in series [2]. The CC50 in series [3] was determined as 26500 nM.

Consider `O=C(C1CC1)N1CCOc2c(cc(-c3csc4ccccc34)cc2OCCc2ccccn2)C1`, for which the 50% effective concentration (EC50) in series [1] was 711 nM; in series [2] it was 594 nM. Besides, in series [3], it took 68200 nM to reach half-maximal cytotoxicity (CC50).

For the compound `CCOC(=O)c1c(CN2CCN(CC#N)CC2)n(Cc2ccccc2)c2cc(Br)c(O)cc12`, the EC50 was found to be 1180 nM in series [1] and 884 nM in series [2]. Besides, in series [3], the CC50 was > 100000 nM.

On to `C#CCN1c2ccccc2Sc2cccnc21`, for which the half-maximal effective concentration (EC50) in series [1] turned out to be 50.4 nM; in series [2] it was 321 nM. Besides, the half-maximal cytotoxic concentration (CC50) in series [3] amounted to 36400 nM.

With `CCOC(=O)c1cc(S(=O)(=O)NCc2ccc(F)cc2)n[nH]1`, the concentration giving a half-maximal response (EC50) was > 847 nM in series [1] and 88.1 nM in series [2]. The CC50 in series [3] was > 10000 nM.

Turning to `OC(CNCc1ccco1)Cn1c2ccc(Cl)cc2c2cc(Cl)ccc21` (centres undefined), the results for the concentration giving a half-maximal response (EC50) in series [1] and in series [2] were 5050 nM and 881 nM, respectively. Besides, the cytotoxic concentration (CC50) in series [3] was > 100000 nM.

With `CSc1nc(SC)c2c3c(sc2n1)CN(C)CC3`, the EC50 in series [1] was found to be 750 nM; in series [2], 881 nM. Also, the 50% cytotoxic concentration (CC50) in series [3] was > 100000 nM.

Turning to `CC(=O)N(C1=C(N(C)C)C(=O)c2ccccc2C1=O)c1ccc(Cl)c(Cl)c1`, the EC50 in series [1] was determined as 82 nM; in series [2], 73.4 nM. For the same compound, the cytotoxic concentration (CC50) in series [3] came out at 8350 nM.

Consider `Fc1ccc(-c2c[n+](Cc3ccc(Cl)cc3Cl)c3n2CCC3)cc1`, for which the figures for the EC50 in series [1] and in series [2] were 1450 nM and 880 nM, respectively. Further, the half-maximal cytotoxic concentration (CC50) in series [3] is > 100000 nM.

For the compound `CCCCCCCC[n+]1c(C)n(C)c2cc(Cl)c(Cl)cc21`, the figures for the EC50 in series [1] and in series [2] were 527 nM and 356 nM, respectively. The same compound registered a CC50 in series [3] of 40500 nM.

Take `COC(=O)c1c(NC(=O)c2ccc(S(=O)(=O)N3CCOCC3)cc2)sc2c1CCN(C(C)=O)C2`: the EC50 in series [1] worked out at 8660 nM; in series [2], 878 nM. Besides, in series [3], the CC50 is > 100000 nM.

On to `CC(C)(C)C(=O)Cn1ccc(=N)c2ccccc21`, for which the concentration giving a half-maximal response (EC50) turned out to be 2030 nM in series [1] and 877 nM in series [2]. The 50% cytotoxic concentration (CC50) in series [3] was > 100000 nM.

On to `CC(C)CNC(=O)c1ccc(OC2CCN(CC3CCCCC3)CC2)c(Cl)c1`, for which the EC50 in series [1] came to 326 nM; in series [2], 130 nM. Also, the 50% cytotoxic concentration (CC50) in series [3] was determined as 14800 nM.

With `COc1ccc(OC)c(-c2ccc(O)c(CN3CCCCCC3)c2)c1`, the EC50 in series [1] worked out at 570 nM; in series [2], 87.6 nM. Besides, the CC50 in series [3] is > 10000 nM.

On to `CCc1ccc(C(=O)C[n+]2cc(-c3ccc(OC)cc3)n3c2CCC3)cc1`, for which the concentration for a half-maximal effect (EC50) in series [1] was 677 nM; in series [2], 857 nM. Further, the CC50 in series [3] was > 98000 nM.

Turning to `Cc1cccc2c1[nH]c1nc(SCC(C)C)nnc12`, the concentration giving a half-maximal response (EC50) in series [1] was determined as 1480 nM; in series [2], 873 nM. Also, in series [3], the CC50 was > 100000 nM.

As for `COc1cc2c(cc1OC)C1Cc3ccc(OC)c(OC)c3CN1CC2` (centres undefined), the concentration for a half-maximal effect (EC50) turned out to be 2600 nM in series [1] and 871 nM in series [2]. Besides, in series [3], the CC50 was > 100000 nM.

In the case of `Cc1ccc(Cl)cc1N1CCN(S(=O)(=O)c2ccc3c(c2)oc(=O)n3C)CC1`, the concentration giving a half-maximal response (EC50) in series [1] was > 12500 nM; in series [2] it was 882 nM. Moreover, the CC50 in series [3] is > 100000 nM.

As for `CSc1cccc(NC(=O)C2C3C=CC4(O3)C2C(=O)N(Cc2ccc(F)cc2)C4C(=O)NC2CCCC(C)C2C)c1` (centres undefined), the half-maximal effective concentration (EC50) was 1430 nM in series [1] and 875 nM in series [2]. In series [3], the CC50 is > 100000 nM.

As to `N#Cc1ccc(NC(=O)NC2CC3CCCC(C2)N3CCc2ccccc2)cc1` (centres undefined), the concentration for a half-maximal effect (EC50) turned out to be 362 nM in series [1] and 425 nM in series [2]. In series [3], this compound showed a CC50 of 48600 nM.

For the origin of these results see ChEMBL document CHEMBL1156829 (Proc Natl Acad Sci U S A, 2008).
